According to paper PMC11345841, “Exploring 2-Sulfonylpyrimidine Warheads as Acrylamide Surrogates for Targeted Covalent Inhibition: A BTK Story” (Journal of Medicinal Chemistry, 2024):
Where two headings read alike, the source gives them in different places.

Assays:
VEGFR2 = molecular target: T1, VEGFR2 (Homo sapiens, UniProt P35968); assay: KINOMEscan ScanTK; type: binding
T1 construct: purchased Eurofins DiscoverX KINOMEscan (scanTK)

[1] = molecular target: T2, JAK2(JH1domain-catalytic) (Homo sapiens, UniProt O60674); assay: KINOMEscan ScanTK; type: binding
T2 construct: JAK2(JH1domain-catalytic); purchased Eurofins DiscoverX KINOMEscan (scanTK)

ALK = molecular target: T3, ALK (Homo sapiens, UniProt Q9UM73); assay: KINOMEscan ScanTK; type: binding
T3 construct: purchased Eurofins DiscoverX KINOMEscan (scanTK)

[2] = molecular target: T4, ABL1(F317L)-phosphorylated (Homo sapiens, UniProt P00519, F317L); assay: KINOMEscan ScanTK; type: binding
T4 construct: purchased Eurofins DiscoverX KINOMEscan (scanTK)

MET(M1250T) = molecular target: T5, MET(M1250T) (Homo sapiens, UniProt P08581, M1250T); assay: KINOMEscan ScanTK; type: binding
T5 construct: purchased Eurofins DiscoverX KINOMEscan (scanTK)

wild-type BTK [3] = molecular target: T6, wild-type BTK (Homo sapiens, UniProt Q06187); assay: NanoBRET target engagement assay in HEK293 cells
[4] = molecular target: T7, JAK1(JH1domain-catalytic) (Homo sapiens, UniProt P23458); assay: KINOMEscan ScanTK; type: binding
T7 construct: JAK1(JH1domain-catalytic); purchased Eurofins DiscoverX KINOMEscan (scanTK)

FLT3(D835H) = molecular target: T8, FLT3(D835H) (Homo sapiens, UniProt P36888, D835H); assay: KINOMEscan ScanTK; type: binding
T8 construct: purchased Eurofins DiscoverX KINOMEscan (scanTK)
T8 sequence (P36888 27-993 D835H): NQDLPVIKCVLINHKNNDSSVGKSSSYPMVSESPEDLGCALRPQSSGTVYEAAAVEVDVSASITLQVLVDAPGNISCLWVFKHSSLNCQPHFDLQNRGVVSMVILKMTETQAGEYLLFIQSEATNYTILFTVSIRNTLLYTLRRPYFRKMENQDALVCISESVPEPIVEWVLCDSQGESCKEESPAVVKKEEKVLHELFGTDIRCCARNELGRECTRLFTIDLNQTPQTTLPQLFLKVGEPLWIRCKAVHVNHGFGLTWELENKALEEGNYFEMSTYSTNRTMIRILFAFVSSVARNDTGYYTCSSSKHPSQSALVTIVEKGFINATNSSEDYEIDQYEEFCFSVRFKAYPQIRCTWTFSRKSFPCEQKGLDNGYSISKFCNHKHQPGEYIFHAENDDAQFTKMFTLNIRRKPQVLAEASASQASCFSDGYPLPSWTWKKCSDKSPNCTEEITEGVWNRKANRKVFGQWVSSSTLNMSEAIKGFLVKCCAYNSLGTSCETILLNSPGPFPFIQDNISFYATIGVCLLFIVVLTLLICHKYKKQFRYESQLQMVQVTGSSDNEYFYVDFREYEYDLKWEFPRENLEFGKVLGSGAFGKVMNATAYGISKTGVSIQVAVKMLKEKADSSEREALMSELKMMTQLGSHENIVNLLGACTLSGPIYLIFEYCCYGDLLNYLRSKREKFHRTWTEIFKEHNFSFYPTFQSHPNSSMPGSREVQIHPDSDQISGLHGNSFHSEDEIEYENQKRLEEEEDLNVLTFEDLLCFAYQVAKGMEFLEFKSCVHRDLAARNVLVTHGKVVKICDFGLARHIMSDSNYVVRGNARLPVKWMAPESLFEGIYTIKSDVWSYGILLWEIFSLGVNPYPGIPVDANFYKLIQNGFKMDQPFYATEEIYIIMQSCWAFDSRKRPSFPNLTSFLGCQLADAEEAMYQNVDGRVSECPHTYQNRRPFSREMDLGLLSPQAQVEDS

wild-type BTK [5] = molecular target: T6, wild-type BTK; assay: BTK in vitro activity assay (ADP-Glo, poly-Glu:Tyr phosphorylation, TCEP)
ABL1-phosphorylated = molecular target: T9, ABL1-phosphorylated (Homo sapiens, UniProt P00519); assay: KINOMEscan ScanTK; type: binding
T9 construct: purchased Eurofins DiscoverX KINOMEscan (scanTK)

RET = molecular target: T10, RET (Homo sapiens, UniProt P07949); assay: KINOMEscan ScanTK; type: binding
T10 construct: purchased Eurofins DiscoverX KINOMEscan (scanTK)

MUSK = molecular target: T11, MUSK (Homo sapiens, UniProt O15146); assay: KINOMEscan ScanTK; type: binding
T11 construct: purchased Eurofins DiscoverX KINOMEscan (scanTK)
T11 sequence (O15146 24-869): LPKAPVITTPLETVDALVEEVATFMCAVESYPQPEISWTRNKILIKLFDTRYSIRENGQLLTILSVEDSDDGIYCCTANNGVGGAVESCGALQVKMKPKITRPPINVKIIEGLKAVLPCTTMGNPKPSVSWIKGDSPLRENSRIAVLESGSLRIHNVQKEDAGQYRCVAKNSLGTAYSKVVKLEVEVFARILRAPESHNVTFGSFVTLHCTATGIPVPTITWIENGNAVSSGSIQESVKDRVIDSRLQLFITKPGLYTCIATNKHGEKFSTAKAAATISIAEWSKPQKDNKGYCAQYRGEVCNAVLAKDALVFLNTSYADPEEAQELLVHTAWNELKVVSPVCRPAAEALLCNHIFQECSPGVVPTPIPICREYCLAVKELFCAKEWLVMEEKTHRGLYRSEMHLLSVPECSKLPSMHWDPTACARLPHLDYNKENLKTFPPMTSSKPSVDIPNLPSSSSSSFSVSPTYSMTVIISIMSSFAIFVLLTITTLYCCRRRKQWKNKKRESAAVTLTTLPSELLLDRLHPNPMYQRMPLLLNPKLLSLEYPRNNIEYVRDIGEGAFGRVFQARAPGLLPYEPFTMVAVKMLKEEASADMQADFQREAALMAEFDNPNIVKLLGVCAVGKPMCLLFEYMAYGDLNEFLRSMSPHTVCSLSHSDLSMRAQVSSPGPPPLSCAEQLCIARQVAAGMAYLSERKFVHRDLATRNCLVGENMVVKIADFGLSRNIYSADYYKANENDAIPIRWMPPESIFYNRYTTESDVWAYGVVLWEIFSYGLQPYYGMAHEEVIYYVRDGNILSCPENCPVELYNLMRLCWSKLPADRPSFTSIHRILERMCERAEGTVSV

CSF1R = molecular target: T12, CSF1R (Homo sapiens, UniProt P07333); assay: KINOMEscan ScanTK; type: binding
T12 construct: purchased Eurofins DiscoverX KINOMEscan (scanTK)
T12 sequence (P07333 20-972): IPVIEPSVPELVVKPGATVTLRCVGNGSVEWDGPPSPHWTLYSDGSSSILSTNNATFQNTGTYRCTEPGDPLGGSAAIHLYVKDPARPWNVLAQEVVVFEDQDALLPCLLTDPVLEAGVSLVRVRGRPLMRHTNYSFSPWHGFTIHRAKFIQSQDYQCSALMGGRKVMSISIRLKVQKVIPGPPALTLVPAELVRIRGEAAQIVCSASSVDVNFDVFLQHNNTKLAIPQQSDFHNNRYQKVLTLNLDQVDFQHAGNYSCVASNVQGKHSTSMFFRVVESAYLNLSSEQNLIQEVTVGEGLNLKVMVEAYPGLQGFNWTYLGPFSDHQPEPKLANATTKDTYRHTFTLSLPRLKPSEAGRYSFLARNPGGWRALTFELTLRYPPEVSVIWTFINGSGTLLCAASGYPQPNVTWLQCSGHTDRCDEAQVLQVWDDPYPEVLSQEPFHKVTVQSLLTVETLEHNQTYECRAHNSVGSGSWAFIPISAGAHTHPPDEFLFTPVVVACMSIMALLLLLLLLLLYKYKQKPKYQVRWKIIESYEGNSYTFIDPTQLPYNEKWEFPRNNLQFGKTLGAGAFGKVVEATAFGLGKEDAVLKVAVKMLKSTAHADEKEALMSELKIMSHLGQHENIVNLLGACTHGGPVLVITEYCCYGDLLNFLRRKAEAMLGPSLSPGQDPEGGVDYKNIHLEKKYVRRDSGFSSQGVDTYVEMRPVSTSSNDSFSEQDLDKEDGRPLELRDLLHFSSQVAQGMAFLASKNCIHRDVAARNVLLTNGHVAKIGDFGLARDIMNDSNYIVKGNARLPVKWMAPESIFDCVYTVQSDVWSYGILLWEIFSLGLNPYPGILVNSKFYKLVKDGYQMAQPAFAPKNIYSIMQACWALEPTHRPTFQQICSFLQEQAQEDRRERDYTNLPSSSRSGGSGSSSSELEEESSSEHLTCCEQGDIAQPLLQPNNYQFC

T4 sequence (P00519 whole entry F317L): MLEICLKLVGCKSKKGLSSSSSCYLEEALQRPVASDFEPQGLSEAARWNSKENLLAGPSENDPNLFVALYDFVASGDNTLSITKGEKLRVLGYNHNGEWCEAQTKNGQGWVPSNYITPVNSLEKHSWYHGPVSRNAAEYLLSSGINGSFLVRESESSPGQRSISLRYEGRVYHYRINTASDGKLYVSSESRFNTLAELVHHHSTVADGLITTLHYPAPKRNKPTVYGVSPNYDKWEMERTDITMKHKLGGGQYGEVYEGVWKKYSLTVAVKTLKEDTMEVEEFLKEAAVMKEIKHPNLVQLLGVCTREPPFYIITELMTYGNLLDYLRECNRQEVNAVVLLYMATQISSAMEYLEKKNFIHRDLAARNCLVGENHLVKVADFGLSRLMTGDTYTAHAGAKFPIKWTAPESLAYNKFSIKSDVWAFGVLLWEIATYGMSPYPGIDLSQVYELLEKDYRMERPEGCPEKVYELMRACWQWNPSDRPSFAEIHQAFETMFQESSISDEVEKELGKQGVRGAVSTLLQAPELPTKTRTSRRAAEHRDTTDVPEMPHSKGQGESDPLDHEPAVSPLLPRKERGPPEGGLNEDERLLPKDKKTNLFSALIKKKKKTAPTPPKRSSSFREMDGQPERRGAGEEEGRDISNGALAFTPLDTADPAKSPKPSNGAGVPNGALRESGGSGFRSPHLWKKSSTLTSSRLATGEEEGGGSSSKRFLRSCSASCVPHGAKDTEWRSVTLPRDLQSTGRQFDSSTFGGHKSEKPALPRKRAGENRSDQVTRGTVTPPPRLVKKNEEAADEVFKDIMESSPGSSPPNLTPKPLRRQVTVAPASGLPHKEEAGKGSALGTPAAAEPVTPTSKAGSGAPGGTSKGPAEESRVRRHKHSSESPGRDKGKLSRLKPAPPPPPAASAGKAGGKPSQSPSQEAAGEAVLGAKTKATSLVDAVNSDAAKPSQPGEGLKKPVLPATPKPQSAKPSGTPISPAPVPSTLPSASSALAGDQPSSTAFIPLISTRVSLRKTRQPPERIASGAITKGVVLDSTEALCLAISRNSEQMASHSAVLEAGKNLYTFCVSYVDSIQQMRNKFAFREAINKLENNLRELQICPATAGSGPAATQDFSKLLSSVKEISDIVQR
T6 sequence (Q06187 whole entry): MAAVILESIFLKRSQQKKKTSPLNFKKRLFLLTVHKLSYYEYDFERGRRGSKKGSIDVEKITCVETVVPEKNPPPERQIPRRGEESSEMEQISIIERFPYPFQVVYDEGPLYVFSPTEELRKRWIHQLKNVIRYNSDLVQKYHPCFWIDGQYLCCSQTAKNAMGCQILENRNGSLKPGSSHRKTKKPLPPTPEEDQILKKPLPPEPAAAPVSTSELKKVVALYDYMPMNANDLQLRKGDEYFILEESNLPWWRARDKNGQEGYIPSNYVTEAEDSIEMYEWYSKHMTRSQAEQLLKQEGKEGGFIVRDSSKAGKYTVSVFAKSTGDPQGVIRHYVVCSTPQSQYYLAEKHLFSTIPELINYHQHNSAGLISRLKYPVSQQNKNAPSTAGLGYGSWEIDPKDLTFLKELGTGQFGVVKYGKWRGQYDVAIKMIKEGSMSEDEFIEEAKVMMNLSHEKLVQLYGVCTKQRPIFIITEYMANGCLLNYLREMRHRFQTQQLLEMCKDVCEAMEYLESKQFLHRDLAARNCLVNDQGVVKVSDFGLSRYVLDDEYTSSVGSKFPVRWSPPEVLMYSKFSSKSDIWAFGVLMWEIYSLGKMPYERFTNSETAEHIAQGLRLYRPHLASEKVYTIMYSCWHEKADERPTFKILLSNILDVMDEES
T3 sequence (Q9UM73 19-1620): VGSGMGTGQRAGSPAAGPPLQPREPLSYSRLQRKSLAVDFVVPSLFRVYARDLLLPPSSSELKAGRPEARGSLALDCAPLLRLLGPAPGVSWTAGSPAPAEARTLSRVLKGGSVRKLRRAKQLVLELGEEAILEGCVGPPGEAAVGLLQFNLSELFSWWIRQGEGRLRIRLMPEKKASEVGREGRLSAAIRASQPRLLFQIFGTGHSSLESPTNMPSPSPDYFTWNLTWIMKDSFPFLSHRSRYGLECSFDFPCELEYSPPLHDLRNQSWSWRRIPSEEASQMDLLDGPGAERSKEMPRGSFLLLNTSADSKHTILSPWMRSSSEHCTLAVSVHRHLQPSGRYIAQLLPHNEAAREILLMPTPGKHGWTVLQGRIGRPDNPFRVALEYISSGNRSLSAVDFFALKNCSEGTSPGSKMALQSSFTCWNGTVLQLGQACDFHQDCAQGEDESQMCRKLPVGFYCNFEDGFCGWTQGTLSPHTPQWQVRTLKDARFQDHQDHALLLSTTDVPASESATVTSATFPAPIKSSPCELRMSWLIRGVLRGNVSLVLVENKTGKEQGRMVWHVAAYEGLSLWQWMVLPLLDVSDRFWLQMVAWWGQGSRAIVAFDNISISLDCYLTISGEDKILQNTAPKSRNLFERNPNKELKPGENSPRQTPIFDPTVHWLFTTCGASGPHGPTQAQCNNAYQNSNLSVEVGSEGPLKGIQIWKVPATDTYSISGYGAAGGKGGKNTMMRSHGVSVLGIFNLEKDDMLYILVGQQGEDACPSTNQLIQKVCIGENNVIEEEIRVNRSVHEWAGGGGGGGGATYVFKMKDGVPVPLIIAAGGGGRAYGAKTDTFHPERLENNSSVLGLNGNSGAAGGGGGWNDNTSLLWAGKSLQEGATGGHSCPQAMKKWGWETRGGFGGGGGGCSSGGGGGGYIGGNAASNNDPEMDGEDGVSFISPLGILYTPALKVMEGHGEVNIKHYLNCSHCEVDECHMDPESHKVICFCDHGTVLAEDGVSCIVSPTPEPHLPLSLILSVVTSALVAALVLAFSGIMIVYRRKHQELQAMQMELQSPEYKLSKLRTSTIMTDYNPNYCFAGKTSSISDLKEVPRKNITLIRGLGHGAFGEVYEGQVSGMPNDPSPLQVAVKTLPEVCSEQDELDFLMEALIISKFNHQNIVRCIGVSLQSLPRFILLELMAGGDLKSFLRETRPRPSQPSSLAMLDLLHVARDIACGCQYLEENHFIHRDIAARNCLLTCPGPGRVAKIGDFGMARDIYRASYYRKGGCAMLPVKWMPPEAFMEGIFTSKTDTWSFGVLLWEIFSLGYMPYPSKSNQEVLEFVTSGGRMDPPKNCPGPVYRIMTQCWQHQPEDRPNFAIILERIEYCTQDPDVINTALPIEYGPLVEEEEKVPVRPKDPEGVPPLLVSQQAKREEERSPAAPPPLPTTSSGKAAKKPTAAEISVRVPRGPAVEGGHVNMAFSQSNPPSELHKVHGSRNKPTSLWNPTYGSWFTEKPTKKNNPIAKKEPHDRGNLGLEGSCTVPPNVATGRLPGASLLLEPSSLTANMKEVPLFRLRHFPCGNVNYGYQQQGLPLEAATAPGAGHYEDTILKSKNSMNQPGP
T9 sequence (P00519 whole entry): as the sequence (P00519 whole entry F317L) above, with L317F counted along it
T2 sequence (O60674 849-1132 limits assumed): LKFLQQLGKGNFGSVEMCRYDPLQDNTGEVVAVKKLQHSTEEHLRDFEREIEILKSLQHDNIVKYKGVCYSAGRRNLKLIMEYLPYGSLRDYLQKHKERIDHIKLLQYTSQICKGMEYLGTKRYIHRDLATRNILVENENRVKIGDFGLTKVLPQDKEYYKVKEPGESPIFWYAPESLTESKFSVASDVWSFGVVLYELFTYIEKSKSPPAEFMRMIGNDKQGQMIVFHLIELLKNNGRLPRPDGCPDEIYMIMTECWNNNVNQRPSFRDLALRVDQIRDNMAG
T7 sequence (P23458 875-1154 limits assumed): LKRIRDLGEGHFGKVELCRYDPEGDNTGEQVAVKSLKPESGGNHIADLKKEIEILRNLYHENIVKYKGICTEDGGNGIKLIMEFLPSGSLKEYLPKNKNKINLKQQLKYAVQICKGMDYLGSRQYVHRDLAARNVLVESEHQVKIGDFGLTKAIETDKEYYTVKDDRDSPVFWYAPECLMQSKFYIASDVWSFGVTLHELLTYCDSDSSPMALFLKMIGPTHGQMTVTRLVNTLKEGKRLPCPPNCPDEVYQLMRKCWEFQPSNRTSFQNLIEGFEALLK

- remaining binding at 1 µM (VEGFR2; @1000nM, read-out: %Control): 90%
- remaining binding at 1 µM (VEGFR2; read-out: %Control @1000nM): 90%
- difference in %Control vs compound Ib at 1 µM ([1]; @1000nM): -18%
- remaining binding at 1 µM ([1]; @1000nM, read-out: %Control): 82%
- remaining binding at 1 µM ([1]; read-out: %Control @1000nM): 82%
- difference in %Control versus compound Ib at 1 µM (ALK; @1000nM): 6%
- remaining binding at 1 µM (ALK; @1000nM, read-out: %Control): 100%
- remaining binding at 1 µM (ALK; read-out: %Control @1000nM): 100%
- difference in %Control from compound Ib at 1 µM ([2]; @1000nM): 16%
- remaining binding at 1 µM ([2]; @1000nM, read-out: %Control): 53%
- remaining binding at 1 µM ([2]; read-out: %Control @1000nM): 53%
- remaining binding at 1 µM (MET(M1250T); @1000nM, read-out: %Control): 96%
- remaining binding at 1 µM (MET(M1250T); read-out: %Control @1000nM): 96%
- IC50 (wild-type BTK [3]): 38 ± 6 nM
- difference in %Control versus compound Ib at 1 µM ([4]; @1000nM): 3%
- remaining binding at 1 µM ([4]; @1000nM, read-out: %Control): 97%
- remaining binding at 1 µM ([4]; read-out: %Control @1000nM): 97%
- difference in %Control from compound Ib at 1 µM (FLT3(D835H); @1000nM): 38%
- remaining binding at 1 µM (FLT3(D835H); @1000nM, read-out: %Control): 74%
- remaining binding at 1 µM (FLT3(D835H); read-out: %Control @1000nM): 74%
- IC50 (wild-type BTK [5]): 57 ± 1 nM
- remaining activity at 0.1 µM (wild-type BTK [5]; read-out: Remaining BTK activity (%)): 2 ± 1%
- difference in %Control from compound Ib at 1 µM (ABL1-phosphorylated; @1000nM): 19%
- remaining binding at 1 µM (ABL1-phosphorylated; @1000nM, read-out: %Control): 79%
- remaining binding at 1 µM (ABL1-phosphorylated; read-out: %Control @1000nM): 79%
- remaining binding at 1 µM (RET; @1000nM, read-out: %Control): 56%
- remaining binding at 1 µM (RET; read-out: %Control @1000nM): 56%
- remaining binding at 1 µM (MUSK; @1000nM, read-out: %Control): 92%
- remaining binding at 1 µM (MUSK; read-out: %Control @1000nM): 92%
- difference in %Control versus compound Ib at 1 µM (CSF1R; @1000nM): 12%
- remaining binding at 1 µM (CSF1R; @1000nM, read-out: %Control): 92%
- remaining binding at 1 µM (CSF1R; read-out: %Control @1000nM): 92%
Compound: COC(=O)c1cnc(S(C)(=O)=O)nc1N1CCCC(n2nc(-c3ccc(Oc4ccccc4)cc3)c3c(N)ncnc32)C1 (centres unmarked) [Compound 8b, Methyl 4-(3-(4-Amino-3-(4-phenoxyphenyl)-1H-pyrazolo[3,4-d]pyrimidin-1-yl)piperidin-1-yl)-2-(methylsulfonyl)pyrimidine-5-carboxylate]
